Where two headings read alike, the source gives them in different places.
Columns and labels:
[1] = system: N. fowleri ATCC® 30808 trophozoites; assay: Plasma membrane permeability (SYTOX Green); format: cell-based, Naegleria fowleri; conditions: IC90 of compound, 24 h
Experimental: The evaluation of the programmed cell death induction by the meroterpenoids was performed in the ATCC® 30808™ N. fowleri trophozoites. Cells were incubated over 24 h with the IC90 (Table 1) of the compounds at 37 °C. In these experiments, the presence of different metabolic events which are characteristics of the programmed cell death process were evaluated. For this, five different apoptosis events marker kits (the Hoechst 33342/Propidium Iodide, SYTOX™ Green kit, CellROX® Deep Reagent, JC-1 Mitochondrial Membrane Potential Detection Kit, and the Celltiter-Glo® Luminescent Cell Viability Assay) were used according to manufacturer’s instructions. Furthermore, the percentage of stained cells was determined after incubating the treated and non-treated cells with the stains.
The evaluation of the damage in the cell membrane permeability was conducted with the SYTOX Green assay (Life Technologies, Madrid, Spain). Amoebae were incubated with the molecules over 24 h at 37 °C. An EVOS™ M5000 Imaging System (Invitrogen by Thermo Fisher Scientific) was used to observe the trophozoites. Cells with compromised plasma membrane permeability show bright green fluorescence as the stain reaches the nucleus. However, no fluorescence is observed in negative control cells.
In the PCD assays, the number of stained and unstained cells was measured after the performance of the experiments. Regarding the JC-1 Mitochondrial Membrane Potential assays, the ratio between the emitted red fluorescence (at 595 nm) and green fluorescence (at 535 nm) was determined. For each kit, images (×40) with at least 80 cells were selected and analyzed. […] The graphs illustrate the mean value ± SD of three different tests. Finally, a one-way analysis of variance (ANOVA) was assessed to determine the statistical differences between the treated cells and the negative control amoebae, ** p < 0.01; *** p < 0.001; **** p < 0.0001 significant differences.

N. fowleri ATCC® 30808 = assay: In vitro activity against N. fowleri trophozoites (alamarBlue), strain ATCC 30808; format: cell-based, Naegleria fowleri; conditions: for IC50 / IC90: Naegleria fowleri; for Anti-Naegleria activity (in words): both tested strains of N. fowleri
Experimental: (§1) The in vitro activity against N. fowleri trophozoites was evaluated in two different strains from the American Type Culture Collection (LG Promochem, Barcelona, Spain), ATCC® 30808™ and ATCC® 30215™. Cells were axenically grown in 2% Bactocasitone (w/v) medium (Thermo Fisher Scientific, Madrid, Spain) at 37 °C. Moreover, 10% (v/v) of fetal bovine serum (FBS) 0.3 μg/mL of Penicillin G Sodium Salt and 0.5 mg/mL of Streptomycin sulphate (Sigma-Aldrich, Madrid, Spain) were also added to the Bactocasitone medium.
(§2) For these assays, a colorimetric assay was conducted using the alamarBlue® reagent. Briefly, N. fowleri trophozoites were seeded in duplicate in a 96-well microtiter plate. After that, different concentrations of the evaluated meroterpenoids diluted in fresh Bactocasitone were added to the wells. The negative control consisted on the trophozoites incubated with the medium alone. Lastly, the alamarBlue® (Life Technologies, Madrid, Spain) reagent was added. Plates were incubated in slight agitation at 37 °C. After 48 h, the fluorescence of the wells was analyzed in an EnSpire Multimode Plate Reader (Perkin Elmer, Madrid, Spain) using a wavelength of excitation of 570 nm and a wavelength of emission of 585 nm.
(§3) In order to calculate the IC50 and IC90, a nonlinear regression analysis with a 95% confidence limit was performed.
(§4) The in vitro IC50, IC90, and CC50 of the compounds were determined by a non-linear regression with a 95% confidence limit. The SigmaPlot 12.0 software (Systat Sofware Inc., London, UK) was used to perform the data analysis using a paired two-tailed t-test. Values of p < 0.05 were considered significant. The data represent the mean value and the SD of the conducted three different experiments.

N. fowleri ATCC® 30215 = assay: In vitro activity against N. fowleri trophozoites (alamarBlue), strain ATCC 30215; format: cell-based; conditions: Naegleria fowleri, ATCC30215, 48 h, mean ± SD
Experimental: as §1, §2, §3, §4

[2] = In vitro cytotoxicity against murine macrophages (alamarBlue); format: cell-based; conditions: mouse, J774A.1 murine macrophages (ATCC TIB-67), murine macrophages J774A.1, 24 h, mean ± SD
Experimental: (§5) Murine macrophages from the J774A.1 cell line (ATCC® TIB-67) were maintained in Dulbecco’s Modified Eagle’s medium (DMEM) in order to evaluate the toxicity of the compounds. In addition, 10% (v/v) FBS and 10 μg/mL gentamicin (Sigma-Aldrich, Madrid, Spain) were added to the growth medium. Cells were grown in a 5% CO2 atmosphere at 37 °C.
(§6) For the cytotoxicity assays, the same protocol as detailed in Section 4.4 above was used. Murine macrophages were incubated with serial dilutions of the evaluated compounds at 37 °C in a 5% CO2 atmosphere over 24 h. The obtained data were analyzed as described in the previous section in order to calculate the CC50.
as §4

[3] = system: Murine macrophages J774A.1 (ATCC® TIB-67); assay: as above; format: cell-based; conditions: murine macrophages J774A.1, 24 h, mean ± SD
Experimental: as §5, §6, §4

[4] = ATCC 30215 / ATCC 30808, range over the named compounds and both strains (ATCC 30808 and ATCC 30215), read-out: IC50 against N. fowleri
[5] = ATCC30808, N. fowleri trophozoites, 48 h, alamarBlue, mean ± SD
[6] = ATCC30808, N. fowleri trophozoites, 48 h, alamarBlue, mean ± SD, read-out: IC50 ATCC® 30808

With `COc1c(C)cc(O)cc1C/C=C(\C)CC(=O)/C=C(\C)CCC[C@@H](C)C(=O)/C=C/C(C)(C)O` [1′Methoxyamentadione (3), 1′-methoxyamentadione] as the molecule, how does the “Plasma membrane permeability damage (SYTOX green)” value [1] read?
Its value is “plasma membrane permeability damage”.

What about the IC50 (N. fowleri ATCC® 30808; [4]) of the same molecule?
Its IC50 is 13.3 to 20.4 µM.

And the IC90 (N. fowleri ATCC® 30808; [5])?
The IC90 was 64.9 ± 6.94 µM.

What about the IC50 (N. fowleri ATCC® 30808; [6]) of the same molecule?
The IC50 was 19.9 ± 5.27 µM.

And the “Anti-Naegleria activity (in words)” value (N. fowleri ATCC® 30808)?
The value was “active”.

And the IC50 (N. fowleri ATCC® 30215)?
The IC50 was 16.5 ± 0.96 µM.

What about the IC90 (N. fowleri ATCC® 30215) of the same molecule?
The IC90 was 59.7 ± 20.2 µM.

And the CC50 at 24 h [2]?
The CC50 at 24 h was 26.2 ± 2.25 µM.

What about the CC90 at 24 h [2] of the same molecule?
The CC90 at 24 h was 68.7 ± 7.46 µM.

What does the source list for `COc1c(C)cc(O)cc1C/C=C(\C)CC(=O)/C=C(/C)CCC[C@@H](C)C(=O)/C=C/C(C)(C)O` [6Z-1′Methoxyamentadione (2), 6Z-1′-methoxyamentadione]?
Plasma membrane permeability damage (SYTOX green) [1]: plasma membrane permeability damage; IC50 (N. fowleri ATCC® 30808; [4]): 13.3 to 20.4 µM; IC90 (N. fowleri ATCC® 30808; [5]): 55.3 ± 8.28 µM; IC50 (N. fowleri ATCC® 30808; [6]): 20.4 ± 4.07 µM; Anti-Naegleria activity (in words) (N. fowleri ATCC® 30808): active; IC50 (N. fowleri ATCC® 30215): 13.3 ± 0.96 µM; IC90 (N. fowleri ATCC® 30215): 44.2 ± 14.9 µM; CC50 at 24 h [2]: 26.6 ± 4.03 µM; CC90 at 24 h [2]: 67.2 ± 6.32 µM

With `COc1c(C)cc(O)cc1C/C=C(\C)CC(=O)/C=C(\C)CCCC(C)=O` [Cystomexicone B (6), cystomexicone B] as the molecule, how does the “Plasma membrane permeability damage (SYTOX green)” value [1] read?
Its value is “plasma membrane permeability damage”.

What about the IC90 (N. fowleri ATCC® 30808; [5]) of the same molecule?
The IC90 was 206 ± 16.6 µM.

And the IC50 (N. fowleri ATCC® 30808; [6])?
The IC50 was 58.9 ± 10.1 µM.

What about the “Anti-Naegleria activity (in words)” value (N. fowleri ATCC® 30808) of the same molecule?
The value was “active”.

What about the “Selectivity index (SI)” value (N. fowleri ATCC® 30808; cytotoxicity in murine macrophages versus activity against N. fowleri) of the same molecule?
The value was over 8.5.

What about the IC50 (N. fowleri ATCC® 30215) of the same molecule?
Its IC50 is 58.1 ± 5.85 µM.

What about the IC90 (N. fowleri ATCC® 30215) of the same molecule?
The IC90 was 260 ± 41.1 µM.

And the CC50 [3]?
Its CC50 is over 500 µM.

And the CC50 at 24 h [2]?
Its CC50 at 24 h is over 279 µM.

And the CC90 at 24 h [2]?
The CC90 at 24 h was over 500 µM.

With `COc1c(C)cc(O)cc1C/C=C(\C)CC(=O)C/C(C)=C/CC[C@@H](C)C(=O)/C=C/C(C)(C)O` [Gongolarone B (1), gongolarone B] as the molecule, how does the “Plasma membrane permeability damage (SYTOX green)” value [1] read?
The value was “plasma membrane permeability damage”.

What about the IC90 (N. fowleri ATCC® 30808; [5]) of the same molecule?
Its IC90 is 58 ± 1.73 µM.

And the IC50 (N. fowleri ATCC® 30808; [6])?
Its IC50 is 21.9 ± 1.6 µM.

And the “Anti-Naegleria activity (in words)” value (N. fowleri ATCC® 30808)?
The value was “active”.

What about the IC50 (N. fowleri ATCC® 30215) of the same molecule?
Its IC50 is 18.9 ± 0.94 µM.

And the IC90 (N. fowleri ATCC® 30215)?
The IC90 was 68.3 ± 1.73 µM.

What about the CC50 at 24 h [2] of the same molecule?
Its CC50 at 24 h is 25.6 ± 4.16 µM.

And the CC90 at 24 h [2]?
The CC90 at 24 h was 72.9 ± 5.94 µM.
